# Tested on: IL-12 induced STAT4 phosphorylation mediated by TYK2/JAK2
# Experiment: IL-12 induced pSTAT4 in human PBMC
# Format: cell-based
# Conditions: 1 hr compound, 1.7 ng/mL IL-12 for 30 minutes
# Experimental: Human PBMC were isolated from buffy coat and are stored frozen for assays as needed. […] 15 μL of compound or DMSO was added to the well at the desired concentrations and incubated at 1 hr at 37° C. 15 μL of stimulus (final concentration of 1.7 ng/mL IL-12) was added for 30 minutes prior to pSTAT4 and total STAT4 analysis using cell lysates prepared and analyzed by MSD reagents as per manufacturer protocol. The final DMSO concentration of compound in the assay was 0.1%. The IL-12 induced pSTAT4 assay evaluates the inhibition of IL-12 induced STAT4 phosphorlyation mediated by TYK2/JAK2 ([…] complex).
row,Structure (SMILES),IC50
1,CNc1cc(-c2cnc3n(CC(=O)N4CC5(COC5)C4)cccc2-3)nc2c(C(=O)N[C@H]3CC[C@@H]3OC)cnn12 [Compound I-1012],> 1 µM
2,CNc1cc(-c2cnc3n([C@H]4COC[C@@H]4O)cccc2-3)nc2c(C(=O)NC3CC3)cnn12 [Compound I-816],< 0.1 µM
3,CNc1cc(-c2cn(C(C)C)c3nnccc23)nc2c(C(=O)NC3CC[C@@H]3OC)cnn12 (stereo partly drawn) [Compound I-993],< 0.1 µM
4,CNc1cc(-c2cn([C@H]3C[C@@H](O)C3)c3ncccc23)nc2c(C(=O)NC3CCC3(F)F)cnn12 (stereo partly drawn) [Compound I-677],< 0.1 µM
5,CNc1cc(Nc2cccn(C3COC3)c2=O)nc2c(C(=O)NC3CC[C@H]3F)cnn12 (stereo partly drawn) [Compound I-160],< 0.1 µM
6,CNc1cc(-c2cnc3n([C@@H]4CN(C)C[C@H]4OC)cccc2-3)nc2c(C(=O)N[C@H]3CC[C@@H]3OC)cnn12 [Compound I-944],< 0.1 µM
7,CNc1cc(Nc2cccn(-c3ncccc3F)c2=O)nc2c(C(=O)N[C@@H]3CC[C@H]3OC)cnn12 [Compound I-266],< 0.1 µM
8,CNc1cc(-c2cn([C@H]3CCOC[C@@H]3OC)c3ncccc23)nc2c(C(=O)N[C@H]3CC[C@@H]3OC)cnn12 [Compound I-663],< 0.1 µM
9,CNc1cc(Nc2cccn([C@H]3CCCC[C@H]3O)c2=O)nc2c(C(=O)N[C@H]3CC[C@]3(C)OC)cnn12 [Compound I-424],< 0.1 µM
10,"CNc1cc(-c2cn([C@H]3[C@@H]4COC[C@@H]43)c3ncccc23)nc2c(C(=O)N[C@H]3CC[C@@H]3OC)cnn12 [I-793, 5-(1-((1R,5S,6r)-3-oxabicyclo[3.1.0]hexan-6-yl)-1H-pyrrolo[2,3-b]pyridin-3-yl)-N-((1S,2S)-2-methoxycyclobutyl)-7-(methylamino)pyrazolo[1,5-a]pyrimidine-3-carboxamide]",< 0.1 µM
11,CNc1cc(-c2cn([C@H]3C[C@@H](COC)C3)c3ncccc23)nc2c(C(=O)N[C@H]3CC[C@@H]3OC)cnn12 [Compound I-933],< 0.1 µM
12,CNc1cc(Nc2cccn([C@H]3CCC[C@@H](C#N)C3)c2=O)nc2c(C(=O)N[C@H]3CCC3(F)F)cnn12 [Compound I-331],< 0.1 µM
13,CNc1cc(-c2cnc3n([C@H]4COC[C@@H]4OC)cccc2-3)nc2c(C(=O)N[C@@H]3CC[C@@H]3F)cnn12 [Compound I-840],< 0.1 µM
14,CNc1cc(Nc2cccn(C3CCOCC3)c2=O)nc2c(C(=O)NC3CC[C@H]3F)cnn12 (stereo partly drawn) [Compound I-191],< 0.1 µM
15,CNc1cc(Nc2cccn([C@H]3CCCOC3)c2=O)nc2c(C(=O)N[C@@H]3CCC3(F)F)cnn12 [Compound I-314],< 0.1 µM
16,CNc1cc(Nc2cccn([C@H]3[C@@H]4COC[C@@H]43)c2=O)nc2c(C(=O)NC3CC[C@H]3F)cnn12 (stereo partly drawn) [Compound I-203],< 0.1 µM
17,CNc1cc(Nc2cccn([C@@H]3C[C@H]3F)c2=O)nc2c(C(=O)NC3CCC3(F)F)cnn12 (stereo partly drawn) [Compound I-274],< 0.1 µM
18,CNc1cc(-c2cnc3n([C@H]4CCOC[C@@H]4O)cccc2-3)nc2c(C(=O)N[C@@H]3C[C@@H]3F)cnn12 [Compound I-825],< 0.1 µM
19,CNc1cc(Nc2cccn([C@H]3C[C@H](F)C3)c2=O)nc2c(C(=O)N[C@H]3C[C@@H]3OC)cnn12 [Compound I-138],< 0.1 µM
20,CNc1cc(-c2cn([C@@H]3CCOC[C@@H]3OC)c3ncccc23)nc2c(C(=O)NC3CCC3(F)F)cnn12 (stereo partly drawn) [Compound I-702],< 0.1 µM
21,CNc1cc(Nc2cccn([C@H]3CC[C@H]3O)c2=O)nc2c(C(=O)N[C@@H]3CC[C@H]3F)cnn12 [Compound I-169],< 0.1 µM
22,CNc1cc(-c2cn([C@H]3COC[C@@H]3OC)c3ncccc23)nc2c(C(=O)N[C@H]3CC[C@@H]3F)cnn12 [Compound I-523],< 0.1 µM
23,CNc1cc(-c2cn([C@@H]3COC[C@H]3OC)c3ncccc23)nc2c(C(=O)NC3CC[C@H]3F)cnn12 (stereo partly drawn) [Compound I-531],< 0.1 µM
24,CNc1cc(-c2cn([C@@H]3CCC4(C3)OCCO4)c3ncccc23)nc2c(C(=O)NC3CC[C@@H]3OC)cnn12 (stereo partly drawn) [Compound I-672],< 0.1 µM
25,CNc1cc(Nc2cccn([C@@H]3C[C@H]3F)c2=O)nc2c(C(=O)N[C@@H]3CCC3(F)F)cnn12 [Compound I-276],< 0.1 µM

# Further lines, results first:
row,IC50,Structure (SMILES)
1,< 0.1 µM,CNc1cc(Nc2cccn([C@H]3CC[C@@H]3OC)c2=O)nc2c(C(=O)NC3CC[C@H]3O)cnn12 (stereo partly drawn) [Compound I-239]
2,< 0.1 µM,CNc1cc(-c2cn([C@H]3CCC4(C3)OCCO4)c3ncccc23)nc2c(C(=O)NC3CC[C@@H]3OC)cnn12 (stereo partly drawn) [Compound I-671]
3,< 0.1 µM,CNc1cc(Nc2cccn([C@@H]3CC[C@H]3OC)c2=O)nc2c(C(=O)N[C@H]3CC[C@H]3O)cnn12 [Compound I-243]
4,< 0.1 µM,CNc1cc(-c2cn([C@@H]3CCN(C)C3)c3ncccc23)nc2c(C(=O)NC3CC[C@@H]3OC)cnn12 (stereo partly drawn) [Compound I-615]
5,< 0.1 µM,CNc1cc(-c2cn(C3CCCC3)c3ncccc23)nc2c(C(=O)NC3CCC3(F)F)cnn12 (stereo not drawn) [Compound I-680]
6,< 0.1 µM,CNc1cc(Nc2cccn([C@H]3CCC[C@H](OC)C3)c2=O)nc2c(C(=O)NC3CC[C@@H]3F)cnn12 (stereo partly drawn) [Compound I-230]
7,< 0.1 µM,CNc1cc(-c2cn([C@H]3COC[C@H]3F)c3ncccc23)nc2c(C(=O)N[C@H]3CC[C@H]3O)cnn12 [Compound I-574]
8,< 0.1 µM,CNc1cc(Nc2cccn([C@H]3C[C@@H]3F)c2=O)nc2c(C(=O)N[C@H]3CC[C@@H]3F)cnn12 [Compound I-149]
9,< 0.1 µM,CNc1cc(Nc2cccn([C@@H]3CCCC[C@@H]3O)c2=O)nc2c(C(=O)NC3CC[C@@H]3F)cnn12 (stereo partly drawn) [Compound I-209]
10,< 0.1 µM,CNc1cc(-c2cn(C3COC3)c3ncccc23)nc2c(C(=O)NC3CCC3(F)F)cnn12 (stereo not drawn) [Compound I-673]
11,< 0.1 µM,CNc1cc(-c2cn([C@@H]3COC[C@H]3O)c3ncccc23)nc2c(C(=O)NC3CCC3(F)F)cnn12 (stereo partly drawn) [Compound I-692]
12,< 0.1 µM,CNc1cc(-c2cn([C@@H]3CC3(F)F)c3ncccc23)nc2c(C(=O)NC3CC[C@H]3O)cnn12 (stereo partly drawn) [Compound I-548]
13,< 0.1 µM,CNc1cc(Nc2cccn([C@H]3[C@@H]4COC[C@@H]43)c2=O)nc2c(C(=O)NC3CC[C@@H]3F)cnn12 (stereo partly drawn) [Compound I-206]
14,< 0.1 µM,CNc1cc(Nc2cccn(-c3ncccc3F)c2=O)nc2c(C(=O)N[C@@H]3CC[C@@]3(C)OC)cnn12 [Compound I-415]
15,< 0.1 µM,CNc1cc(-c2cn([C@H]3CCOC[C@H]3OC)c3ncccc23)nc2c(C(=O)N[C@@H]3CCC3(F)F)cnn12 [Compound I-811]
16,< 0.1 µM,CNc1cc(-c2cnc3n([C@@H]4COC[C@H]4OC)cccc2-3)nc2c(C(=O)N[C@@H]3CC[C@H]3OC)cnn12 [Compound I-884]
17,< 0.1 µM,CNc1cc(-c2cnc3n([C@H]4COC[C@@H]4OC)cccc2-3)nc2c(C(=O)N[C@@H]3CC[C@H]3OC)cnn12 [Compound I-881]
18,< 0.1 µM,CNc1cc(-c2cn([C@@H]3COC[C@H]3OC)c3ncccc23)nc2c(C(=O)NC3CC[C@@H]3OC)cnn12 (stereo partly drawn) [Compound I-636]

row,IC50,Structure (SMILES)
1,< 0.1 µM,CNc1cc(Nc2cccn([C@@H]3CCC[C@@H]3O)c2=O)nc2c(C(=O)N[C@@H]3CC[C@H]3F)cnn12 [Compound I-181]
2,< 0.1 µM,CNc1cc(-c2cnc3n([C@H]4COC[C@@H]4O)cccc2-3)nc2c(C(=O)N[C@@H]3CC[C@H]3OC)cnn12 [Compound I-878]
3,< 0.1 µM,CNc1cc(-c2cn([C@@H]3CCOC3)c3ncccc23)nc2c(C(=O)N[C@H]3CC[C@@H]3OC)cnn12 [Compound I-610]
4,< 0.1 µM,CNc1cc(-c2cnc3n([C@H]4COC[C@@H]4OC)cccc2-3)nc2c(C(=O)NC3CC[C@H]3F)cnn12 (stereo partly drawn) [Compound I-838]
5,< 0.1 µM,"CNc1cc(Nc2cccn([C@H]3C[C@H](F)C3)c2=O)nc2c(C(=O)N[C@H]3CC[C@H]3O)cnn12 [I-16, 5-((1-((1r,3S)-3-Fluorocyclobutyl)-2-oxo-1,2-dihydropyridin-3-yl)amino)-N-((1S,2R)-2-hydroxycyclobutyl)-7-(methylamino)pyrazolo[1,5-a]pyrimidine-3-carboxamide]"
6,< 0.1 µM,CNc1cc(Nc2cccn([C@@H]3CCC[C@@H]3O)c2=O)nc2c(C(=O)NC3CC[C@@H]3F)cnn12 (stereo partly drawn) [Compound I-179]
7,< 0.1 µM,CNc1cc(Nc2cccn([C@H]3CC[C@H](OC)CC3)c2=O)nc2c(C(=O)NC3CC[C@@H]3F)cnn12 (stereo partly drawn) [Compound I-224]
8,< 0.1 µM,CNc1cc(Nc2cccn(-c3ocnc3C)c2=O)nc2c(C(=O)N[C@H]3CC[C@@H]3F)cnn12 [Compound I-186]
9,< 0.1 µM,CNc1cc(Nc2cccn(C3CCOCC3)c2=O)nc2c(C(=O)N[C@H]3CC[C@H]3F)cnn12 [Compound I-192]
10,< 0.1 µM,CNc1cc(Nc2cccn([C@H]3C[C@@H]3F)c2=O)nc2c(C(=O)NC3CCC3(F)F)cnn12 (stereo partly drawn) [Compound I-277]
11,< 0.1 µM,CNc1cc(Nc2cccn(C3COC3)c2=O)nc2c(C(=O)N[C@@H]3C[C@@H]3F)cnn12 [Compound I-125]
12,< 0.1 µM,CNc1cc(Nc2cccn([C@@H]3CCC[C@H](C#N)C3)c2=O)nc2c(C(=O)NC3CCC3(F)F)cnn12 (stereo partly drawn) [Compound I-327]
13,< 0.1 µM,CNc1cc(-c2cnc3n([C@@H]4CCOC[C@H]4O)cccc2-3)nc2c(C(=O)N[C@H]3CC[C@@H]3F)cnn12 [Compound I-848]
14,< 0.1 µM,CNc1cc(Nc2cccn(C(C)C)c2=O)nc2c(C(=O)N[C@@H]3CC[C@@]3(C)O)cnn12 [Compound I-341]
15,< 0.1 µM,CNc1cc(Nc2cccn(C(C)C)c2=O)nc2c(C(=O)N[C@@H]3CC[C@H]3F)cnn12 [Compound I-147]
16,< 0.1 µM,CNc1ccc(-c2cc(NC)n3ncc(C(=O)N[C@H]4CC[C@H]4F)c3n2)n2ccnc12 [Compound I-784]
17,< 0.1 µM,CNc1cc(Nc2cccn(C3CCOCC3)c2=O)nc2c(C(=O)N[C@@H]3CCC3(F)F)cnn12 [Compound I-311]

# Source: patent US12221453B2, “Substituted pyrazolo[5′,1′:2,3]pyrimido[5,4-b][1,4]oxazines as TYK2 inhibitors” (TAKEDA PHARMACEUTICAL COMPANY LIMITED, priority 2018, dated 2025)
